The source of these data is patent US20220030850A1, “CRYOPRESERVATIVE COMPOSITIONS AND METHODS” (REGENTS OF THE UNIVERSITY OF MINNESOTA, priority 2015, published 2022).

In one series the test system is H9-MSCs. The experiment in a line: Gene expression by qRT-PCR immediately post-thaw. In kind it is cell-based, human. As to conditions: GAPDH internal control, FIG. 23. The procedure:
Certain genes within select gene categories were analyzed using qRT-PCR. H9-MSCs subjected to different freezing approaches were assayed immediately post-thaw for the expression of genes related to trophic factor secretion such as HGF, VEGF, FGF2, CXCL12 (SDF-1α), mesodermal lineage markers TWIST1, TWIST2 (DERMO1), MSX2, the anti-apoptotic marker BCL2, surface markers for cell adhesion such as CD106 and CD54, the osmotic regulator marker GAL-1, and stress-response markers such as EGR1 and NFE2L2 (NRF2).
Pellets of thawed samples described above were resuspended in QIAZOL lysis agent (Qiagen, Hilden, Germany) for further RNA isolation and processing. […] The purified RNA was quantified using a NANODROP 2000 (Therm Fisher Scientific, Waltham, Mass.) device to determine concentration.
For qRT-PCR studies, 800 ng of RNA was used for reverse transcription to make cDNA using SuperScript III First-Strand Synthesis System (Thermo Fisher Scientific, Waltham, Mass.). cDNA was diluted to a concentration of 4 ng/μl and real-time qPCR was performed with 10 ng cDNA per 10 μl reaction with QuantiTect SYBR Green PCR Kit (Qiagen, Hilden, Germany) on CFX384 Real-Time PCR detection system (Bio-Rad Laboratories, Inc., Hercules, Calif.). […] were analyzed using the comparative CT method (Schmittgen et al., 2008. Nat Protoc 3:1101-1108) with GAPDH as an internal control gene.

For another series, the target named is lysozyme (Gallus gallus, UniProt P00698). Description: Differential scanning calorimetry, denaturation temperature of lysozyme in osmolyte solution. As to conditions: 1 mg/ml lysozyme in 20 mM HEPES buffer; single osmolytes 600 mM; heated at 1° C./min; pH 7.3. In kind it is physicochemical. How it is done: Lysozyme powder was dissolved into each solution reaching final concentration of 100 mg/ml and then refrigerated. Lysozyme in DPBS solution was used as control. For DSC measurements, experiment solution was made by dissolving osmolyte into 20 mM HEPES buffer and the concentration of osmolyte in each solution remained same as in DPBS solution. Lysozyme powder was dissolved into each solution reaching final concentration of 1 mg/ml and kept refrigerated. Lysozyme in HEPES buffer was used as control. The pH of solutions was 7.3 measured by Beckman 350 meter. Differential scanning calorimetry was performed on a differential scanning calorimeter (Q1000, TA Instruments, New Castle, Del.). Osmolyte solutions containing lysozyme were heated in order to determine the denaturation temperature of lysozyme. Experimental solutions were heated from room temperature to 90° C. at 1° C./min. Specific heat, Cp, was calculated from the heat flow data assuming Cp as a function of temperature were analyzed using OriginPro software (OriginLab Corp., Northampton, Mass.) to subtract curve baseline. The midpoint temperature, Tm, was obtained as the temperature corresponding to the maximum specific heat value from the baseline and the denaturation temperature was assumed to be Tm^32.
lysozyme, sequence (P00698 19-147): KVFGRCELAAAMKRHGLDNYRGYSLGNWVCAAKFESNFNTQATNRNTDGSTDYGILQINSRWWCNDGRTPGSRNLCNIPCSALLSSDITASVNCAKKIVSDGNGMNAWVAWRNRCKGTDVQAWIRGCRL
In general terms: Differential scanning calorimetry records heat flow against a reference as temperature is scanned.

The test system of the next series is Jurkat cells. The experiment in a line: High throughput factorial screening with Linear Mixed Effects statistical analysis of recovery. As to conditions: statistical analysis of sugar and cooling rate. The format is cell-based. How it is done: (§1) In another evaluation, cells were combined with factorial combinations of the components listed in Table 5, using one component from each category. Plates including cells and solutions were frozen at cooling rates of 1′C/min, 3′C/min, 5′C/min, or 10′C/min.
(§2) Recovery was calculated by dividing the number of live cells post thaw—calculated using a control curve correlating calcein-acetoxymethyl (AM) fluorescence to cell count—by the number of live cells seeded pre-freeze (AO/PI counts taken prior to freezing). Recovery was normalized by dividing by the DMSO recovery on each plate, then multiplying by a standard DMSO recovery for each cooling rate. This normalized recovery was used to compare samples between different plates and different cooling rates.
(§3) Statistical analysis of the data was performed using a Linear Effects Model. The model associated with best fit was determined using Bayesian Information Criteria. […] The ten best combinations for Jurkats are summarized in Table 6 below, while the eight best combinations for MSCs are summarized in Table 7.
High throughput factorial screening experiments were performed on a Biomek Beckman FX 96 liquid handling robot. Briefly, 12.5 μl of an array of additives were transferred to nine 96-well plates containing 12.5 μl of different sugar alcohols. Cells (25 μl) diluted in either a sugar (in a solution of NORMOSOL-R; Hospira, Inc., Lake Forest, L) or a NORMOSOL-R blank solution were transferred to these nine plates to give a final volume of 50 μl in each well. Cells suspended in […] in media were also included as a row of each plate to serve as normalization wells for plate-to-plate comparison.
When all plate volume transfers were complete, silicone plate covers were used to seal each plate, and plates were transferred to a controlled rate freezer (Kryo 10 Series III, Planer PLC, Middlesex, United Kingdom) and frozen at cooling rates ranging from 1° C./min to 10° C./min. The concentrations of components present in solution are listed in Table 11, and were selected based on values described in literature or solubility limits. Component concentrations were 0 if not listed in a solution.
Plate samples were also assessed for viability using fluorescence. Briefly, a solution of calcein-AM/propidium iodide was prepared and a volume of 50 μl was added to each sample well of experimental 96-well plates, producing a 1:1 dilution. Plates were protected from light and placed in an incubator for 30 minutes to allow for calcein-AM digestion. A fluorescent plate reader (Synergy HT, BioTek Instruments, Inc., Winooski, Vt.) was used to determine the fluorescence in each well, which was correlated to live and dead cell counts using a control curve.
Viability was calculated for all samples by dividing the number of live cells by the number of total cells. Recovery was calculated directly by dividing the number of live cells post thaw by the number of live cells pre-freeze. Recovery for 96-well plate samples was further normalized; each experimental sample recovery was divided by the DMSO recovery on the same plate, and then multiplied by the standard DMSO recovery for the cooling rate of each experiment.
To assess the importance of the four explanatory variables of interest (Sugar, Rate, Additive and Alcohol), without neglecting the variation between each batch and between each plate within the batches, we sought to find the best Linear Mixed Effects (LME) model. […]

A further series relates to MSCs. The description is as above. As to conditions: statistical analysis of sugar and cooling rate. The format is cell-based, human. The procedure: as §1, §2, §3
To assess the importance of the four explanatory variables of interest (Sugar, Rate, Additive and Alcohol), without neglecting the variation between each batch and between each plate within the batches, we sought to find the best Linear Mixed Effects (LME) model. With yi the i'th outcome of the response, Xi the corresponding values of the covariates, the LME model is defined as
To select the most fitting model, we performed backward elimination based on the Bayesian Information Criterion (BIC) starting with a model that includes all variables and second order interactions. Furthermore, we included two random variables, one to catch the effect of the batch, and one to catch the effect of each plate within the batch—i.e., the full model is: […]

Regarding `C[S+](C)[O-]` [DMSO, dimethyl sulfoxide], in the series on H9-MSCs, the CXCL12 expression result was “notable change” and the TWIST2 expression result was “elevated”.

For `OC[C@H]1O[C@@](CO)(O[C@H]2O[C@H](CO)[C@@H](O)[C@H](O)[C@H]2O)[C@@H](O)[C@@H]1O` [Sucrose], on lysozyme, the “Denaturation temperature Tm of lysozyme” value stood at 84.4 °C. The “cooling rate at which cells performed better with the sugar” value was 10 °C and 1° C./min in the series on Jurkat cells; 3 °C and 5° C./min with MSCs.
